In patent publication US20220401439A1, “INTRANASAL PHARMACEUTICAL COMPOSITIONS OF CGRP INHIBITORS” (Biohaven Pharmaceutical Holding Company Ltd., priority 2019, published 2022):

System: patients receiving acute treatment of migraine
Experiment: Phase 2/3 trial BHV3500-201 (Study 201), efficacy in acute treatment of migraine
Type: in vivo, human
Details: for Return to normal function at 2 hours postdose, n/N (%) / Return to normal function at 30 minutes postdose, n/N (%) / Return to normal function at 60 minutes postdose, n/N (%): mITT subjects with functional disability at on-study migraine attack onset; for Pain relapse from 2 to 48 hours postdose, n/N (%): mITT subjects with pain freedom at 2 hours postdose; for Nausea freedom at 2 hours postdose, n/N (%) / Phonophobia freedom at 2 hours postdose, n/N (%) / Photophobia freedom at 2 hours postdose, n/N (%): mITT subjects with symptom present at on-study migraine attack onset; for Pain relief at 2 hours postdose, n/N (%) / Pain relief at 30 minutes postdose, n/N (%) / Pain relief at 60 minutes postdose, n/N (%) / Rescue medication use within 24 hours postdose, n/N (%) / Sustained pain freedom from 2 to 24 hours postdose, n/N (%) / Sustained pain freedom from 2 to 48 hours postdose, n/N (%) / Sustained pain relief from 2 to 24 hours postdose, n/N (%) / Sustained pain relief from 2 to 48 hours postdose, n/N (%): mITT subjects; for Pain relief at 30 minutes postdose, Stratified Percentage Difference (Zavegepant-Placebo) / Pain relief at 60 minutes postdose, Stratified Percentage Difference (Zavegepant-Placebo) / Rescue medication use within 24 hours postdose, Stratified Percentage Difference (Zavegepant-Placebo) / Sustained pain freedom from 2 to 24 hours postdose, Stratified Percentage Difference (Zavegepant-Placebo) / Sustained pain freedom from 2 to 48 hours postdose, Stratified Percentage Difference (Zavegepant-Placebo) / Sustained pain relief from 2 to 24 hours postdose, Stratified Percentage Difference (Zavegepant-Placebo) / Sustained pain relief from 2 to 48 hours postdose, Stratified Percentage Difference (Zavegepant-Placebo) / Pain relief at 2 hours postdose, Stratified Percentage Difference (Zavegepant-Placebo): mITT; for Pain relief at 30 minutes postdose, Stratified Percentage Difference (Zavegepant-Placebo) / Pain relief at 60 minutes postdose, Stratified Percentage Difference (Zavegepant-Placebo) / Rescue medication use within 24 hours postdose, Stratified Percentage Difference (Zavegepant-Placebo) / Sustained pain freedom from 2 to 24 hours postdose, Stratified Percentage Difference (Zavegepant-Placebo) / Sustained pain freedom from 2 to 48 hours postdose, Stratified Percentage Difference (Zavegepant-Placebo) / Sustained pain relief from 2 to 24 hours postdose, Stratified Percentage Difference (Zavegepant-Placebo) / Sustained pain relief from 2 to 48 hours postdose, Stratified Percentage Difference (Zavegepant-Placebo) / Pain relief at 2 hours postdose, Stratified Percentage Difference (Zavegepant-Placebo) / Return to normal function at 30 minutes postdose, Stratified Percentage Difference (Zavegepant-Placebo) / Return to normal function at 60 minutes postdose, Stratified Percentage Difference (Zavegepant-Placebo) / Return to normal function at 2 hours postdose, Stratified Percentage Difference (Zavegepant-Placebo) / Pain relapse from 2 to 48 hours postdose, Stratified Percentage Difference (Zavegepant-Placebo) / Nausea freedom at 2 hours postdose, Stratified Percentage Difference (Zavegepant-Placebo) / Phonophobia freedom at 2 hours postdose, Stratified Percentage Difference (Zavegepant-Placebo) / Photophobia freedom at 2 hours postdose, Stratified Percentage Difference (Zavegepant-Placebo): CMH weighting; for Pain relief at 2 hours postdose, Stratified Percentage Difference (Zavegepant-Placebo): stratified by prophylactic migraine medication use; for Return to normal function at 30 minutes postdose, Stratified Percentage Difference (Zavegepant-Placebo) / Return to normal function at 60 minutes postdose, Stratified Percentage Difference (Zavegepant-Placebo) / Return to normal function at 2 hours postdose, Stratified Percentage Difference (Zavegepant-Placebo): subjects with functional disability at onset; for Pain relapse from 2 to 48 hours postdose, Stratified Percentage Difference (Zavegepant-Placebo): subjects with pain freedom at 2 hours postdose; for Nausea freedom at 2 hours postdose, Stratified Percentage Difference (Zavegepant-Placebo) / Phonophobia freedom at 2 hours postdose, Stratified Percentage Difference (Zavegepant-Placebo) / Photophobia freedom at 2 hours postdose, Stratified Percentage Difference (Zavegepant-Placebo): subjects with symptom present at onset

`Cc1cc(C[C@@H](NC(=O)N2CCC(c3cc4ccccc4[nH]c3=O)CC2)C(=O)N2CCN(C3CCN(C)CC3)CC2)cc2cn[nH]c12` [Zavegepant, (R)—N-(3-(7-methyl-1H-indazol-5-yl)-1-(4-(1-methylpiperidin-4-yl)piperazin-1-yl)-1-oxopropan-2-yl)-4-(2-oxo-1,2-dihydroquinolin-3-yl)piperidine-1-carboxamide] was tested, and the “Return to normal function at 2 hours postdose, n/N (%)” value (shortened to “Return … at 2 hours postdose, n/N (%)”) (zavegepant 5 mg) was “(31.7) %”, the “Pain relapse from 2 to 48 hours postdose, n/N (%)” value (“Pain relapse … (%)” for short) (zavegepant 5 mg) was “(31.6) %” and the “Nausea freedom at 2 hours postdose, n/N (%)” value (“Nausea freedom … (%)” for short) (zavegepant 5 mg) was “(53.2) %”. The “Phonophobia freedom at 2 hours postdose, n/N (%)” value (shortened to “Phonophobia freedom … (%)”) (zavegepant 5 mg) was “(44.2) %”, the “Photophobia freedom at 2 hours postdose, n/N (%)” value (“Photophobia freedom … (%)” for short) (zavegepant 5 mg) was “(35.0) %” and the “Pain relief at 2 hours postdose, n/N (%)” value (zavegepant 10 mg intranasal single dose) was “(60.6) %”. The “Pain relief at 30 minutes postdose, Stratified Percentage Difference (Zavegepant-Placebo)” value (zavegepant 10 mg vs placebo) was 5.3%, the “Pain relief at 60 minutes postdose, Stratified Percentage Difference (Zavegepant-Placebo)” value (zavegepant 10 mg vs placebo) was 4.2% and the “Rescue medication use within 24 hours postdose, Stratified Percentage Difference (Zavegepant-Placebo)” value (zavegepant 10 mg vs placebo) was −1.1%. For the same molecule, the “Sustained pain freedom from 2 to 24 hours postdose, Stratified Percentage Difference (Zavegepant-Placebo)” value (zavegepant 10 mg vs placebo) was 6.1%, the “Sustained pain freedom from 2 to 48 hours postdose, Stratified Percentage Difference (Zavegepant-Placebo)” value (zavegepant 10 mg vs placebo) was 6.3% and the “Sustained pain relief from 2 to 24 hours postdose, Stratified Percentage Difference (Zavegepant-Placebo)” value (zavegepant 10 mg vs placebo) was 6.8%. For the same molecule, the “Sustained pain relief from 2 to 48 hours postdose, Stratified Percentage Difference (Zavegepant-Placebo)” value (zavegepant 10 mg vs placebo) was 7.0%, the “Pain relief at 2 hours postdose, Stratified Percentage Difference (Zavegepant-Placebo)” value (zavegepant 10 mg vs placebo) was 7.1% and the “Return to normal function at 30 minutes postdose, Stratified Percentage Difference (Zavegepant-Placebo)” value (zavegepant 10 mg vs placebo) was 2.1%. The “Return to normal function at 60 minutes postdose, Stratified Percentage Difference (Zavegepant-Placebo)” value (zavegepant 10 mg vs placebo) was 1.8%, the “Return to normal function at 2 hours postdose, Stratified Percentage Difference (Zavegepant-Placebo)” value (zavegepant 10 mg vs placebo) was 7.1% and the “Pain relapse from 2 to 48 hours postdose, Stratified Percentage Difference (Zavegepant-Placebo)” value (zavegepant 10 mg vs placebo) was −17.0%. For the same molecule, the “Nausea freedom at 2 hours postdose, Stratified Percentage Difference (Zavegepant-Placebo)” value (zavegepant 10 mg vs placebo) was 2.9%, the “Phonophobia freedom at 2 hours postdose, Stratified Percentage Difference (Zavegepant-Placebo)” value (zavegepant 10 mg vs placebo) was 10.8% and the “Photophobia freedom at 2 hours postdose, Stratified Percentage Difference (Zavegepant-Placebo)” value (zavegepant 10 mg vs placebo) was 5.1%. For the same molecule, the “Pain relief at 30 minutes postdose, n/N (%)” value (zavegepant 10 mg) was “(29.9) %”, the “Pain relief at 60 minutes postdose, n/N (%)” value (zavegepant 10 mg) was “(46.0) %” and the “Rescue medication use within 24 hours postdose, n/N (%)” value (zavegepant 10 mg) was “(26.0) %”. For the same molecule, the “Sustained pain freedom from 2 to 24 hours postdose, n/N (%)” value (zavegepant 10 mg) was “(15.1) %”, the “Sustained pain freedom from 2 to 48 hours postdose, n/N (%)” value (zavegepant 10 mg) was “(13.8) %” and the “Sustained pain relief from 2 to 24 hours postdose, n/N (%)” value (zavegepant 10 mg) was “(42.5) %”. For the same molecule, the “Sustained pain relief from 2 to 48 hours postdose, n/N (%)” value (zavegepant 10 mg) was “(39.6) %”, the “Return to normal function at 30 minutes postdose, n/N (%)” value (zavegepant 10 mg) was “(7.6) %” and the “Return to normal function at 60 minutes postdose, n/N (%)” value (zavegepant 10 mg) was “(18.9) %”. For the same molecule, the “Return … at 2 hours postdose, n/N (%)” value (zavegepant 10 mg) was “(34.5) %”, the “Pain relapse … (%)” value (zavegepant 10 mg) was “(33.0) %” and the “Nausea freedom … (%)” value (zavegepant 10 mg) was “(53.9) %”. For the same molecule, the “Phonophobia freedom … (%)” value (zavegepant 10 mg) was “(44.8) %”, the “Photophobia freedom … (%)” value (zavegepant 10 mg) was “(35.6) %” and the “Pain relief at 2 hours postdose, n/N (%)” value (zavegepant 20 mg intranasal single dose) was “(61.2) %”. For the same molecule, the “Pain relief at 30 minutes postdose, Stratified Percentage Difference (Zavegepant-Placebo)” value (zavegepant 20 mg vs placebo) was 1.9%, the “Pain relief at 60 minutes postdose, Stratified Percentage Difference (Zavegepant-Placebo)” value (zavegepant 20 mg vs placebo) was 7.8% and the “Rescue medication use within 24 hours postdose, Stratified Percentage Difference (Zavegepant-Placebo)” value (zavegepant 20 mg vs placebo) was −7.1%. For the same molecule, the “Sustained pain freedom from 2 to 24 hours postdose, Stratified Percentage Difference (Zavegepant-Placebo)” value (zavegepant 20 mg vs placebo) was 6.7%, the “Sustained pain freedom from 2 to 48 hours postdose, Stratified Percentage Difference (Zavegepant-Placebo)” value (zavegepant 20 mg vs placebo) was 5.7% and the “Sustained pain relief from 2 to 24 hours postdose, Stratified Percentage Difference (Zavegepant-Placebo)” value (zavegepant 20 mg vs placebo) was 8.9%. The “Sustained pain relief from 2 to 48 hours postdose, Stratified Percentage Difference (Zavegepant-Placebo)” value (zavegepant 20 mg vs placebo) was 6.2%, the “Pain relief at 2 hours postdose, Stratified Percentage Difference (Zavegepant-Placebo)” value (zavegepant 20 mg vs placebo) was 7.5% and the “Return to normal function at 30 minutes postdose, Stratified Percentage Difference (Zavegepant-Placebo)” value (zavegepant 20 mg vs placebo) was 4.5%. The “Return to normal function at 60 minutes postdose, Stratified Percentage Difference (Zavegepant-Placebo)” value (zavegepant 20 mg vs placebo) was 1.7%, the “Return to normal function at 2 hours postdose, Stratified Percentage Difference (Zavegepant-Placebo)” value (zavegepant 20 mg vs placebo) was 7.3% and the “Pain relapse from 2 to 48 hours postdose, Stratified Percentage Difference (Zavegepant-Placebo)” value (zavegepant 20 mg vs placebo) was −12.5%. The “Nausea freedom at 2 hours postdose, Stratified Percentage Difference (Zavegepant-Placebo)” value (zavegepant 20 mg vs placebo) was 3.7%, the “Phonophobia freedom at 2 hours postdose, Stratified Percentage Difference (Zavegepant-Placebo)” value (zavegepant 20 mg vs placebo) was 9.3% and the “Photophobia freedom at 2 hours postdose, Stratified Percentage Difference (Zavegepant-Placebo)” value (zavegepant 20 mg vs placebo) was 7.4%. The “Pain relief at 30 minutes postdose, n/N (%)” value (zavegepant 20 mg) was “(26.6) %”, the “Pain relief at 60 minutes postdose, n/N (%)” value (zavegepant 20 mg) was “(49.8) %” and the “Rescue medication use within 24 hours postdose, n/N (%)” value (zavegepant 20 mg) was “(20.2) %”. The “Sustained pain freedom from 2 to 24 hours postdose, n/N (%)” value (zavegepant 20 mg) was “(15.7) %”, the “Sustained pain freedom from 2 to 48 hours postdose, n/N (%)” value (zavegepant 20 mg) was “(13.2) %” and the “Sustained pain relief from 2 to 24 hours postdose, n/N (%)” value (zavegepant 20 mg) was “(44.5) %”. The “Sustained pain relief from 2 to 48 hours postdose, n/N (%)” value (zavegepant 20 mg) was “(38.8) %”, the “Return to normal function at 30 minutes postdose, n/N (%)” value (zavegepant 20 mg) was “(9.9) %” and the “Return to normal function at 60 minutes postdose, n/N (%)” value (zavegepant 20 mg) was “(18.8) %”. For the same molecule, the “Return … at 2 hours postdose, n/N (%)” value (zavegepant 20 mg) was “(34.7) %”, the “Pain relapse … (%)” value (zavegepant 20 mg) was “(37.6) %” and the “Nausea freedom … (%)” value (zavegepant 20 mg) was “(54.7) %”. The “Phonophobia freedom … (%)” value (zavegepant 20 mg) was “(43.3) %” and the “Photophobia freedom … (%)” value (zavegepant 20 mg) was “(37.9) %”.
